Assay results published in ChEMBL document CHEMBL3400066, “2-(Isopropylamino)thieno[3,2-d]pyrimidin-4(3H)-one derivatives as selective phosphodiesterase 7 inhibitors with potent in vivo efficacy” (Bioorg Med Chem Lett, 2015).
pIC50: −log10 of the molar value. Converted amounts (≈) assume the structure as drawn.

Assays:
[1] = biological target: High affinity 3',5'-cyclic-AMP phosphodiesterase 7A (Homo sapiens, UniProt Q13946); test: Inhibition of human PDE7A expressed in insect cells assessed as inhibition of [3H]cAMP to [3H]AMP hydrolysis after 30 mins by scintillation counting
Chain of High affinity 3',5'-cyclic-AMP phosphodiesterase 7A (Q13946 whole entry): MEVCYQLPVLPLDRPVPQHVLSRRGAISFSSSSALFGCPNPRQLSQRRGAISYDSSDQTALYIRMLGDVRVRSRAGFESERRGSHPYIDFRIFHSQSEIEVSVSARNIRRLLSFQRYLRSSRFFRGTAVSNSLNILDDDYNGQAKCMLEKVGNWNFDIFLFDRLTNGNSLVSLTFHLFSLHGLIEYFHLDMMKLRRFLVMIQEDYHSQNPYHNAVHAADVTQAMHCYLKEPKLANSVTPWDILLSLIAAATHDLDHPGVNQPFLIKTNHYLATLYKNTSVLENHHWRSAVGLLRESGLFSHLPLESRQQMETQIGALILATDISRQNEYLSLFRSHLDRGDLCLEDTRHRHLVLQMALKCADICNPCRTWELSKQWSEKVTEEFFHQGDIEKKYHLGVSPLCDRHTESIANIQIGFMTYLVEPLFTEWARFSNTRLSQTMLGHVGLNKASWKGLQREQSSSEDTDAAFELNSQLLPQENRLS

[2] = Solubility of the compound in phosphate buffer at pH 6.8; format: physicochemical
[3] = biological target: 3',5'-cyclic-AMP phosphodiesterase 4B (Homo sapiens, UniProt Q07343); test: Inhibition of human PDE4B expressed in insect cells assessed as inhibition of [3H]cAMP to [3H]AMP hydrolysis after 30 mins by scintillation counting
Chain of 3',5'-cyclic-AMP phosphodiesterase 4B (Q07343 whole entry): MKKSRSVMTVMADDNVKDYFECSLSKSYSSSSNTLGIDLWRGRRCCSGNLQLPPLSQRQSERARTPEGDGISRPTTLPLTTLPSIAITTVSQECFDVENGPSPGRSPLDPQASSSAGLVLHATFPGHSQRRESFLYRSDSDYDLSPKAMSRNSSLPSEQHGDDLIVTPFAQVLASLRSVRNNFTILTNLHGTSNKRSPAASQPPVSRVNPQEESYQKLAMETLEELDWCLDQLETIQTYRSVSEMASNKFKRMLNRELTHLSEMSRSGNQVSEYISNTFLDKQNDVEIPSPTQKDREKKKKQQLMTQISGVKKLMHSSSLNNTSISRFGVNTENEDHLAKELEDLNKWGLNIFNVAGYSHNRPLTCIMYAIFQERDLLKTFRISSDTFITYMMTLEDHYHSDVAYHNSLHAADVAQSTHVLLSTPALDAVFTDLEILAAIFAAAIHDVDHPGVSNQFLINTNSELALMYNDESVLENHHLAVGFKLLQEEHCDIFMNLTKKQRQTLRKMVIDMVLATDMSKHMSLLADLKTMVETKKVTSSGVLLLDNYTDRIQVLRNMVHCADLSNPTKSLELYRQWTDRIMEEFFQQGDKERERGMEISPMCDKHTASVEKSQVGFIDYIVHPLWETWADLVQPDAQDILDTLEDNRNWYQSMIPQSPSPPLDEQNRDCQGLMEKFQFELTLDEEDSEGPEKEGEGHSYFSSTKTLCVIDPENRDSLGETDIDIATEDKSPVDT

Lymphocyte = test: Inhibition of IL2 production in activated mouse lymphocytes after 3 hrs by ELISA; format: functional, cell-based
Mus musculus [4] = test: Antiinflammatory activity in ICR mouse ear edema model assessed as inhibition of TPA-induced edema at 0.3 % W/V per ear administered topically 30 mins before TPA challenge; format: functional
Mus musculus [5] = test: Antiinflammatory activity in ICR mouse ear edema model assessed as inhibition of TPA-induced edema at 1% W/V per ear administered topically 30 mins before TPA challenge; format: functional
[6] = biological target: cGMP-inhibited 3',5'-cyclic phosphodiesterase 3A (Homo sapiens, UniProt Q14432); test: Inhibition of PDE3A (unknown origin)
Chain of cGMP-inhibited 3',5'-cyclic phosphodiesterase 3A (Q14432 whole entry): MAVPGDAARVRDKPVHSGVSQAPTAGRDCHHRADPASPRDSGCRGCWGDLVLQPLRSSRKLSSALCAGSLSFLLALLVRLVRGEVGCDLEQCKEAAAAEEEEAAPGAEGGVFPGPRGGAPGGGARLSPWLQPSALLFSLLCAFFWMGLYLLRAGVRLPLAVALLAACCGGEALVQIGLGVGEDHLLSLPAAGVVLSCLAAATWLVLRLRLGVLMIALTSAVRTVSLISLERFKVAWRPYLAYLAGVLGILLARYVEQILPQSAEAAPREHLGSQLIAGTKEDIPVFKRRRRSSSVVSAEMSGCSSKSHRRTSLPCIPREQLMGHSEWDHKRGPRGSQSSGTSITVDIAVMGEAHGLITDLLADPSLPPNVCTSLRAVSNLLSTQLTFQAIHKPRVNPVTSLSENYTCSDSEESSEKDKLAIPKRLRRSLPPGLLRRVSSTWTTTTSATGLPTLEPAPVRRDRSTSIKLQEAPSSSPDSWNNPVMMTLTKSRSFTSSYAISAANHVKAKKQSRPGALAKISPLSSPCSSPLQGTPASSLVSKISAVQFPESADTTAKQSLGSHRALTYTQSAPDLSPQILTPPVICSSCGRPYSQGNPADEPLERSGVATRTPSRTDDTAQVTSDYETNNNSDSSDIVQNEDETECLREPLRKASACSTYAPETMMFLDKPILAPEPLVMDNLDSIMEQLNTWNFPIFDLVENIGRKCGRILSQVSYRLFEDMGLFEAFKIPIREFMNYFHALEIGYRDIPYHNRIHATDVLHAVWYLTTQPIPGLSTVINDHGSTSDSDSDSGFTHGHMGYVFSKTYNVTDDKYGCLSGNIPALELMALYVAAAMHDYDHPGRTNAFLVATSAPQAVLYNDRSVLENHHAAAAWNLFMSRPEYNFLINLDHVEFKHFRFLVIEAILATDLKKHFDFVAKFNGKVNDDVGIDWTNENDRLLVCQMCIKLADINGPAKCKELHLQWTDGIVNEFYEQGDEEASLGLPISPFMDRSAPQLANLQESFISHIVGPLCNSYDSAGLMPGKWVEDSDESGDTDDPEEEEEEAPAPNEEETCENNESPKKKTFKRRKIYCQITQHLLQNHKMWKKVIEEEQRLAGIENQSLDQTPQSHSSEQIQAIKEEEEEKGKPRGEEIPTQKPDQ

[7] = biological target: cGMP-specific 3',5'-cyclic phosphodiesterase (Homo sapiens, UniProt O76074); test: Inhibition of PDE5A (unknown origin)

SMILES | pIC50 [1] | solubility [2] | pIC50 [3] | pIC50 (Lymphocyte) | inhibition (INH) (Mus musculus [4]) | inhibition (INH) (Mus musculus [5]) | pIC50 [6] | pIC50 [7]
CCn1c(NC2CCOCC2)nc2ccsc2c1=O | 6.37 | 37 µg/mL (≈ 132 µM) | 4.92 |  |  |  |  | 
CCn1c(NC(C)C)nc2c(C3CCN(C(C)C)CC3)csc2c1=O | 6.77 | 350 µg/mL (≈ 965 µM) | 4.60 | < 5.52 |  |  |  | 
CCn1c(NC(C)C)nc2c(-c3cccnc3)csc2c1=O | 8.36 | 5.8 µg/mL (≈ 18.4 µM) | 6.28 |  |  |  |  | 
CCn1c(NC(C)C)nc2c(-c3cncnc3)csc2c1=O | 8.12 | 18 µg/mL (≈ 57.1 µM) | 5.96 |  |  |  |  | 
CCn1c(NC2CCC2)nc2ccsc2c1=O | 6.52 | 6.3 µg/mL (≈ 25.3 µM) | 5.32 |  |  |  |  | 
CCn1c(NC(C)C)nc2c(C3CCN(C(C)=O)CC3)csc2c1=O | 7.70 | 74 µg/mL (≈ 204 µM) | 5.82 | 5.70 |  |  |  | 
CCn1c(NC(C)C)nc2c(C3CCN(C(=O)c4ccccc4)C3)csc2c1=O (stereo not given) | 8.82 | 21 µg/mL (≈ 51.2 µM) | 6.42 | 6.12 |  |  |  | 
CCn1c(NC(C)(C)C)nc2ccsc2c1=O | 5.82 | 3.7 µg/mL (≈ 14.7 µM) |  |  |  |  |  | 
CCn1c(NC(C)C)nc2c(C3CCNCC3)csc2c1=O | 6.72 | 1100 µg/mL (≈ 3430 µM) | 4.85 |  |  |  |  | 
CCn1c(NC(C)C)nc2c(C3CCCN(C(C)=O)C3)csc2c1=O (stereo not given) | 8.29 | 230 µg/mL (≈ 634 µM) | 6.25 | 6.12 |  |  |  | 
CCn1c(NC(C)C)nc2c(-c3sc(C)nc3C)csc2c1=O | 8.19 | 4.5 µg/mL (≈ 12.9 µM) | 6.70 |  |  |  |  | 
CCNc1nc2ccsc2c(=O)n1CC | 5.54 | 240 µg/mL (≈ 1070 µM) |  |  |  |  |  | 
CCn1c(NC2CC2)nc2ccsc2c1=O | 5.59 | 430 µg/mL (≈ 1830 µM) |  |  |  |  |  | 
CCCNc1nc2ccsc2c(=O)n1CC | 5.85 | 69 µg/mL (≈ 291 µM) |  |  |  |  |  | 
CCn1c(NC(C)C)nc2c(C3CCN(c4ccccn4)CC3)csc2c1=O | 8.17 |  | 6.36 | < 5.52 |  |  |  | 
CCn1c(NC(C)C)nc2c(-c3ccco3)csc2c1=O | 7.92 | 0.1 µg/mL (≈ 0.33 µM) | 6.26 |  |  |  |  | 
CCn1c(NC(C)C)nc2c(C3CCN(C(=O)c4cccc(C)n4)C3)csc2c1=O (stereo not given) | 8.48 | 150 µg/mL (≈ 352 µM) | 7.34 | 6.82 | 65% | 96% | 5.80 | 5.64
CCn1c(CC(C)C)nc2ccsc2c1=O | 5.33 |  |  |  |  |  |  | 
CCn1c(NC(C)C)nc2ccsc2c1=O |  | 190 µg/mL (≈ 801 µM) |  |  |  |  |  | 
CCn1c(NC(C)C)nc2c(-c3ccnc(OC)c3)csc2c1=O | 8.34 | 2.4 µg/mL (≈ 6.97 µM) | 6.38 |  |  |  |  | 
CCn1c(NC(C)C)nc2c(C3CCN(C(=O)c4ccccn4)C3)csc2c1=O (stereo not given) | 8.57 | 38 µg/mL (≈ 92.3 µM) | 6.70 | 6.54 | 45% | 72% | 5.48 | 5.52
CCn1c(NC(C)C)nc2c(C3CCN(C(=O)CC(C)C)C3)csc2c1=O (stereo not given) | 8.09 | 15 µg/mL (≈ 38.4 µM) | 5.64 | 5.74 |  |  |  | 
CCn1c(N[C@H]2CC[C@H](C(=O)OC)CC2)nc2ccsc2c1=O | 5.68 | 13 µg/mL (≈ 38.8 µM) |  |  |  |  |  | 
CCn1c(NC(C)C)nc2c(C3CCN(C(=O)C(C)C)C3)csc2c1=O (stereo not given) | 8.08 | 130 µg/mL (≈ 345 µM) | 5.85 | < 6.00 |  |  |  | 
CCn1c(N[C@H]2CC[C@H](C(=O)O)CC2)nc2ccsc2c1=O | 5.89 | 450 µg/mL (≈ 1400 µM) |  |  |  |  |  | 
CCn1c(NC(C)C)nc2c(C3CCN(C(=O)c4ncccc4C)C3)csc2c1=O (stereo not given) | 8.85 | 64 µg/mL (≈ 150 µM) | 6.85 | 6.57 | 62% | 77% | 5.89 | 5.51
CCn1c(N[C@H]2CC[C@H](O)CC2)nc2ccsc2c1=O | 5.64 | 74 µg/mL (≈ 252 µM) | 4.62 |  |  |  |  | 
CCn1c(NC(C)C)nc2c(C3CCN(C(C)=O)C3)csc2c1=O (stereo not given) | 7.82 | 470 µg/mL (≈ 1350 µM) | 5.72 |  |  |  |  | 
